Results: PubChem BioAssay (NCI)
Values joined by “and” are separate entries in the source; they are usually repeats but may differ in a detail not shown here. Identical values can stand only once.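 Five concentrations, 48 hours, 96-well plates. GI50 marks 50% less growth. TGI: concentration producing complete growth inhibition.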 Where a SMILES comes first, the peptide text is derived from it. The star is where a group is joined. Trt = c1ccc(C(c2ccccc2)(c2ccccc2)*)cc1; Cbz = O=C(OCc1ccccc1)*

What was measured:
Experiment in all cases: inhibition of tumour cell growth, NCI panel, 48 h
COLO 205 colon = tested on: COLO 205 colon
M14 melanoma = tested on: M14 melanoma
SN12C renal = tested on: SN12C renal
SK-OV-3 ovarian = tested on: SK-OV-3 ovarian
SK-MEL-28 melanoma = tested on: SK-MEL-28 melanoma
EKVX NSCLC = tested on: EKVX NSCLC
SR leukemia = tested on: SR leukemia
RXF 393 renal = tested on: RXF 393 renal
NCI-H23 lung = tested on: NCI-H23 lung
K-562 leukemia = tested on: K-562 leukemia

| SMILES | TGI (COLO 205 colon) [µM] | TGI (M14 melanoma) | TGI (SN12C renal) | TGI (SK-OV-3 ovarian) | TGI (SK-MEL-28 melanoma) | TGI (EKVX NSCLC) | TGI (SR leukemia) [µM] | TGI (RXF 393 renal) | TGI (NCI-H23 lung) | TGI (K-562 leukemia) [µM] | GI50 (COLO 205 colon) [µM] | GI50 (M14 melanoma) [µM] | GI50 (SN12C renal) | GI50 (SK-OV-3 ovarian) | GI50 (SK-MEL-28 melanoma) [µM] | GI50 (EKVX NSCLC) | GI50 (SR leukemia) [µM] | GI50 (RXF 393 renal) | GI50 (NCI-H23 lung) | GI50 (K-562 leukemia) [µM] |
| --- | --- | --- | --- | --- | --- | --- | --- | --- | --- | --- | --- | --- | --- | --- | --- | --- | --- | --- | --- | --- |
| COC(=O)C(=O)C(C(=O)OC)C(=O)C(=O)Nc1c(C)cccc1C (configuration not stated) | > 100 | > 100 µM | > 100 µM | > 100 µM | > 100 µM | > 100 µM | > 100 | > 100 µM | > 100 µM | > 100 |  |  |  |  |  |  |  |  |  |  |
| NS(=O)(=O)c1ccc(Nc2cc(-c3ccc(O)c(F)c3)[nH]n2)cc1 | > 25 | > 25 µM | > 25 µM | > 25 µM | > 25 µM | > 25 µM | > 25 | > 25 µM | > 25 µM | > 25 | > 25 | 15.4 | > 25 µM | > 25 µM | > 25 | > 25 µM | 12.5 | > 25 µM | > 25 µM | > 25 |
| COc1cc2c(c(OC)c1OC)-c1ccc(NN(C(=O)c3ccccc3)C(=O)c3ccccc3)c(=O)cc1[C@@H](NC(C)=O)CC2 (tested in a mixture with another compound) | 12.2 | 6.45 µM | > 100 µM | 8.77 µM | 29 µM | > 100 µM | > 100 | 8 µM | 37.6 µM | > 100 | 3.02 | 2.36 | 5.38 µM | 2.65 µM | 8.76 | 8.09 µM | 3.76 | 2.24 µM | 3.91 µM | 4.03 |
| O=C1[C@@H]2C(c3ccc(Br)cc3)=NO[C@@H]2C(=O)N1c1ccc(Cc2ccc(N3C(=O)[C@H]4C(c5ccc(Br)cc5)=NO[C@H]4C3=O)cc2)cc1 | > 40 | > 40 µM | > 40 µM | > 3.48 µM | > 40 µM | > 3.48 µM | > 40 | > 40 µM | > 3.48 µM | > 40 | > 40 | > 40 |  |  | > 40 |  |  | > 40 µM |  | > 40 |
| COc1cc(/C=C/C(=O)c2cccc(-n3cc(-c4cc(OC)c(OC)c(OC)c4)[nH]c3=O)c2)cc(OC)c1OC | 3.13 | 4.8 µM | 18.2 µM | > 100 µM | 3.39 µM | > 100 µM | > 100 | 3.41 µM | 4.68 µM | > 100 | 1.52 | 2.12 | 2.75 µM | 5.12 µM | 1.61 | 9.48 µM | 0.386 | 1.62 µM | 2 µM | 0.591 |
| Cc1ccc(NC(=O)CCCC(=O)CC(=O)c2ccc(Br)cc2)cc1 | > 100 | > 100 µM | > 100 µM | > 100 µM | > 100 µM | > 100 µM | > 100 | > 100 µM | > 100 µM | > 100 |  |  |  |  |  |  |  |  |  |  |
| CN=c1ss/c(=N\C(=S)N(C)C)n1C |  | > 100 µM | > 100 µM | > 100 µM | > 100 µM | > 100 µM | > 100 | > 100 µM | > 100 µM | > 100 |  |  |  |  |  |  |  |  |  |  |
| COc1cc(C2c3cc4c(cc3[C@@H](NCCN(C)C)C3COC(=O)[C@H]23)OCO4)cc(OC)c1O (some centres not stated) |  | 1.61 µM and 2.31 µM | 0.406 µM and 0.982 µM | 0.565 µM and 0.649 µM | 2.14 µM and 3.38 µM | 5.08 µM and 11 µM | > 100 | 2.08 µM and 4.37 µM | 0.673 µM and 1.41 µM |  |  |  | 0.0256 µM and 0.084 µM | 0.0393 µM and 0.103 µM |  | 1.56 µM and 3.29 µM | 14.4 | 0.301 µM and 1.11 µM | 0.103 µM and 0.228 µM |  |
| CC(C)(CN1C(=O)C(Cl)=C(Cl)C1=O)CN1C(=O)C(Cl)=C(Cl)C1=O | 8.66 | 38.2 µM | 29.4 µM | > 58.9 µM | 20 µM | 51.5 µM | 36 | 14.4 µM | 21 µM | 7.1 |  |  |  |  |  |  |  |  |  |  |
| Clc1nccc2c(-c3csc(-c4c[nH]c5ccc(Br)cc45)n3)c[nH]c12 | 5.61 | 5.62 µM | 14.4 µM | 8.27 µM | 4.16 µM | 12.4 µM | > 100 | 3.43 µM | 8.57 µM | 9.44 | 1.8 | 2.22 | 3.35 µM | 2.78 µM | 1.85 | 3.11 µM | 1.27 | 1.48 µM | 2.42 µM | 2.73 |
| COC(=O)C(CO)NC(=O)C(CSC(c1ccccc1)(c1ccccc1)c1ccccc1)NC(=O)OCc1ccccc1 (configuration not stated) (Cbz-Cys(Trt)-Ser-OMe; configuration not given here) | 32.4 | 44 µM | 27.3 µM | > 90.1 µM | 34 µM | 41.1 µM | 0.221 | 32.5 µM | 40.8 µM | > 49 |  |  |  |  |  |  |  |  |  |  |
| Cc1ccc(CNc2ccc(Br)cc2)cc1 | 49.7 | > 100 µM | > 100 µM | > 100 µM | > 100 µM | > 100 µM | > 100 | 76.5 µM | > 100 µM | > 100 |  |  |  |  |  |  |  |  |  |  |
| O=C(O)C1=C/C(=C(/c2ccccc2)c2cc(C(=O)O)c(O)c3ccccc23)c2ccccc2C1=O | > 100 | > 100 µM | > 100 µM | > 100 µM | > 100 µM | > 100 µM | > 100 | > 100 µM | > 100 µM | > 100 |  |  |  |  |  |  |  |  |  |  |
| COc1ccc(-c2cc(-c3ccc(Nc4nc(Nc5ccccc5)nc(Nc5ccc(Cl)cc5)n4)cc3)nc(N)n2)cc1 | 16.7 | 28.8 µM | 32.6 µM | > 50 µM | 26.5 µM | > 50 µM | 18.7 | 30.7 µM | 25.9 µM | 16.5 | 2.29 | 9.33 | 11.8 µM | 22.7 µM | 10.9 | 6.55 µM | 5.63 | 12.1 µM | 9.4 µM | 4.63 |
| CCCCN(CCCC)C(=O)[C@H](CC)[C@@H]1CC[C@@H](C)[C@@H]([C@H](C)[C@@H](O)[C@@H](C)C(=O)[C@H](CC)C2O[C@]3(C=C[C@@H](O)[C@]4(CC[C@@](C)([C@H]5CC[C@](O)(CC)[C@H](C)O5)O4)O3)[C@H](C)C[C@@H]2C)O1 (some centres not stated) | 5.99 |  | 7.34 µM | > 100 µM | 81.1 µM | 8.8 µM | 8.53 | 3.37 µM | 5.96 µM | 18.4 | 2.45 |  | 2.13 µM | 3.38 µM | 4.21 | 2.32 µM | 2.89 | 1.59 µM | 2.17 µM | 2.66 |
| COc1ccc2c(c1)OC(N)=C(C#N)C2c1cc(OC)c(OC)c(OC)c1 (configuration not stated) | 0.061 | > 100 µM | > 100 µM | 1.11 µM | > 100 µM | > 100 µM | > 100 | 73.6 µM | > 47.7 µM | > 100 | 0.0244 | 0.0336 | 0.0494 µM | 0.0304 µM | 0.0781 | 0.251 µM | 0.0345 | 0.0344 µM | 0.0362 µM | 0.0338 |
| CC1CC2C3CCC4=CC(=O)C=CC4(C)C3(F)C(O)CC2(C)C1(O)C(=O)COP(=O)(O)O (configuration not stated) | > 500 | > 500 µM | > 500 µM | > 500 µM | > 500 µM | > 500 µM | > 100 | > 500 µM | > 500 µM | > 500 | > 500 | > 500 | > 500 µM | > 500 µM | > 500 | > 500 µM |  | > 500 µM | > 500 µM | > 500 |
| CC(C)(C)c1cc(C(=O)Nc2ccccc2C(=O)NCCN)cc(C(C)(C)C)c1 | 3.41 | 3.64 µM | 3.97 µM | 3.69 µM | 3.64 µM | 3.96 µM | 4.56 | 3.58 µM | 3.89 µM | 5.33 | 1.81 | 1.91 | 1.97 µM | 1.9 µM | 1.91 | 1.76 µM | 1.94 | 2.01 µM | 1.94 µM | 2.23 |
| C/C(=N\O)c1ccc2ccc3ccccc3c2c1 | 76.6 | > 100 µM | > 100 µM | > 100 µM | > 100 µM | > 100 µM | 48.7 | > 100 µM | > 100 µM | 93 |  |  |  |  |  |  |  |  |  |  |
| CCOC(=O)C(C)(NC(=O)c1ccc(NCc2ccc3nc(NC(=O)c4ccccc4)nc(NC(=O)c4ccccc4)c3c2)cc1)C(=O)OCC | > 100 | 44.3 µM | 29.8 µM | 27.4 µM | 27.6 µM | 39.5 µM | > 100 | 7.92 µM | 27.5 µM |  |  |  |  |  |  |  |  |  |  |  |
| Nc1ccc2n[se]nc2c1 |  | > 100 µM | > 100 µM | > 100 µM | > 100 µM | > 100 µM | > 100 | > 100 µM | > 100 µM | > 100 |  |  |  |  |  |  |  |  |  |  |
| CC(=O)C1CCN(c2ccccc2)C1 (configuration not stated) |  | > 100 µM | > 100 µM | > 100 µM | > 100 µM | > 100 µM | > 100 | > 100 µM | > 100 µM | > 100 |  |  |  |  |  |  |  |  |  |  |
